# From US4433147A, “Process for preparing 10-deazaminopterins” (priority 1982, dated 1984)
# Values joined by “and” are separate entries in the source; they are usually repeats but may differ in a detail not shown here. Equal entries are not always repeated. Where two headings read alike, the source gives them in different places.
# Tests used:
# ascites tumor systems = assay: Ascites tumor systems, summary of Examples 10 to 13; assay type: in vivo, mice; conditions: all of the ascites tumor systems examined
# in vivo = conditions: read-out: acute LD50
# [1] = Plasma and tissue (tumor, small intestine and marrow) pharmacokinetics; assay type: in vivo; conditions: for Plasma and tissue pharmacokinetics: small intestine and marrow, dAM versus MTX
# carrier in tumor = assay: membrane transport by carrier in tumor; assay type: cell-based
# L1210 leukemia [2] = assay: L1210 leukemia in BD (2) F1 female mice, i.p., increase in median life span (Example 8, Table I); conditions: for Increased life span / Median life span / Weight change: three times per week
# Streptococcus faecium = conditions: DeGraw et al., J. Heterocyclic Chem. 8 105 (1971); cited from earlier work
# L1210 leukemia [3] = assay: L1210 leukemia in BD (2) F1 female mice, i.p., 10-alkyl derivatives (Example 9, Table II); conditions: for AST / ILS: every two days times five; for antileukemic activity compared with methotrexate: on a similar dosage level
# dihydrofolic reductase = conditions: cited from earlier work
# [4] = 6.0 mg/kg oral every 2 days × 5
# Description for Ehrlich ascites: (§1) ^1 One dose (s.c.) every 2 days for a total of 5 doses.
# (§2) ^2 Toxic animals weigh 13-15 g at death (original weight 20 g).
# (§3) MST = Median survival time ± standard deviation.
# ILS = Increased life span.
# Description for L1210 ascites: ^1 One dose every 2 days for a total of 5 doses.
# ^2 Animals weigh 13-15 g at death (original weight 20 g).
# as §3
# ILS = increased life span.
# Each dose tested 2 to 4 times.
# Description for P815 ascites: as §1, §3
# ILS = Increased life span.
# Each dosage tested twice.
# Description for S180-J ascites: as §1, §2, §3
# ILS = Increased life span.
# Each dose tested 2 to 3 times.
smiles,measurement,setting,value
"Nc1nc(N)c2nc(CCc3ccc(C(=O)N[C@@H](CCC(=O)O)C(=O)O)cc3)cnc2n1 [10-deazaminopterin, 10-Deazaminopterin]",activity compared with methotrexate,ascites tumor systems,more active than methotrexate
same,LD50,in vivo,65 mg/kg
same,persistence of exchangeable drug in tumor,"[1]; optimum dosages, dAM over MTX",greater persistence
same,Plasma and tissue pharmacokinetics,[1],similar
same,competition for carrier mechanism,carrier in tumor; dAM and MTX,compete for the same carrier mechanism
same,affinity of carrier in tumor,carrier in tumor; dAM versus MTX,greater affinity
same,saturability (Km) for influx,"carrier in tumor; membrane transport in tumor, dAM versus MTX",favoring greater accumulation of dAM
same,ILS (increased life span),S180-J ascites; 3 mg/kg s.c. every 2 days × 5,8.7%
same,MST (median survival time),S180-J ascites; 3 mg/kg s.c. every 2 days × 5,13.0 ± 1.1 days
same,ILS (increased life span),S180-J ascites; 6 mg/kg s.c. every 2 days × 5,74.8%
same,MST (median survival time),S180-J ascites; 6 mg/kg s.c. every 2 days × 5,21.2 ± 1.7 days
same,ILS (increased life span),S180-J ascites; 9 mg/kg s.c. every 2 days × 5,117.3%
same,MST (median survival time),S180-J ascites; 9 mg/kg s.c. every 2 days × 5,26.3 ± 0.7 days
same,60 day survivors,S180-J ascites; 12 mg/kg s.c. every 2 days × 5,Two
same,ILS (increased life span),S180-J ascites; 12 mg/kg s.c. every 2 days × 5,> 159.6%
same,MST (median survival time),S180-J ascites; 12 mg/kg s.c. every 2 days × 5,> 31.4 ± 2.5 days
same,ILS (increased life span),S180-J ascites; 18 mg/kg s.c. every 2 days × 5,54.0%
same,MST (median survival time),S180-J ascites; 18 mg/kg s.c. every 2 days × 5,18.6 ± 2.4 days
same,long-term survivors,"S180-J ascites; against S180, s.c.",long-term survivors
same,Maximum ILS,"S180-J ascites; against S180, s.c., q2d×5",> +160%
same,Toxic Deaths,"S180-J ascites; mouse, in vivo",0/10 and 0/15 and 7/10
same,ILS (increased life span),P815 ascites; 6 mg/kg s.c. every 2 days × 5,107.6%
same,MST (median survival time),P815 ascites; 6 mg/kg s.c. every 2 days × 5,18.2 ± 1.3 days
same,ILS (increased life span),P815 ascites; 9 mg/kg s.c. every 2 days × 5,116.3%
same,MST (median survival time),P815 ascites; 9 mg/kg s.c. every 2 days × 5,19.0 ± 0.9 days
same,ILS (increased life span),P815 ascites; 12 mg/kg s.c. every 2 days × 5,118.4%
same,MST (median survival time),P815 ascites; 12 mg/kg s.c. every 2 days × 5,19.2 ± 1.2 days
same,Maximum ILS,"P815 ascites; against P815, s.c., q2d×5",+117%
same,Toxic Deaths,"P815 ascites; mouse, in vivo",0/10
same,ILS (increased life span),L1210 ascites; 3 mg/kg oral every 2 days × 5,77%
same,MST (median survival time),L1210 ascites; 3 mg/kg oral every 2 days × 5,11.7 ± 1.0 days
same,ILS (increased life span),L1210 ascites; 3 mg/kg s.c. every 2 days × 5,108%
same,MST (median survival time),L1210 ascites; 3 mg/kg s.c. every 2 days × 5,13.8 ± 0.7 days
same,ILS (increased life span),L1210 ascites; [4],122%
same,MST (median survival time),L1210 ascites; [4],14.7 ± 1.3 days
same,ILS (increased life span),L1210 ascites; 6 mg/kg s.c. every 2 days × 5,131%
same,MST (median survival time),L1210 ascites; 6 mg/kg s.c. every 2 days × 5,15.2 ± 1.5 days
same,ILS (increased life span),L1210 ascites; 9 mg/kg s.c. every 2 days × 5,168%
same,MST (median survival time),L1210 ascites; 9 mg/kg s.c. every 2 days × 5,17.8 ± 0.8 days
same,ILS (increased life span),L1210 ascites; 12 mg/kg s.c. every 2 days × 5,176%
same,MST (median survival time),L1210 ascites; 12 mg/kg s.c. every 2 days × 5,18.2 ± 1.3 days
same,Maximum ILS,"L1210 ascites; against L1210, orally, same dosage and schedule",+122%
same,Maximum ILS,"L1210 ascites; against L1210, s.c., q2d×5",+172%
same,Maximum ILS,L1210 ascites; ip,+203%
same,Toxic Deaths,"L1210 ascites; mouse, in vivo",0/10 and 0/15 and 1/15 and 0/20
same,ILS (increased life span),Ehrlich ascites; 6 mg/kg s.c. every 2 days × 5,34.8%
same,MST (median survival time),Ehrlich ascites; 6 mg/kg s.c. every 2 days × 5,23.2 ± 1.8 days
same,ILS (increased life span),Ehrlich ascites; 9 mg/kg s.c. every 2 days × 5,58.1%
same,MST (median survival time),Ehrlich ascites; 9 mg/kg s.c. every 2 days × 5,27.2 ± 2.2 days
same,ILS (increased life span),Ehrlich ascites; 12 mg/kg s.c. every 2 days × 5,64.0%
same,MST (median survival time),Ehrlich ascites; 12 mg/kg s.c. every 2 days × 5,28.2 ± 2.9 days
same,Maximum ILS,"Ehrlich ascites; against Ehrlich, s.c., q2d×5",+61%
same,Toxic Deaths,"Ehrlich ascites; mouse, in vivo",0/10
same,Increased life span,L1210 leukemia [2]; 0.1875 mg/kg i.p.,3.0%
same,Median life span,L1210 leukemia [2]; 0.1875 mg/kg i.p.,7.2 ± 0.6 days
same,Weight change,L1210 leukemia [2]; 0.1875 mg/kg i.p.,+10%
same,Increased life span,L1210 leukemia [2]; 0.375 mg/kg i.p.,29.7%
same,Median life span,L1210 leukemia [2]; 0.375 mg/kg i.p.,8.9 ± 1.0 days
same,Weight change,L1210 leukemia [2]; 0.375 mg/kg i.p.,+7%
same,Increased life span,L1210 leukemia [2]; 3.0 mg/kg i.p.,164.8%
same,Median life span,L1210 leukemia [2]; 3.0 mg/kg i.p.,13.0 ± 1.9 days
same,Weight change,L1210 leukemia [2]; 3.0 mg/kg i.p.,+5%
same,Toxicity,L1210 leukemia [2]; 6.0 mg/kg i.p.,slight toxicity
same,Increased life span,L1210 leukemia [2]; 6.0 mg/kg i.p.,210.0%
same,Median life span,L1210 leukemia [2]; 6.0 mg/kg i.p.,21.8 ± 1.5 days
same,Weight change,L1210 leukemia [2]; 6.0 mg/kg i.p.,-3%
same,life span of the test mice,L1210 leukemia [2]; i.p.,very considerably increased
same,antileukemic activity compared with methotrexate,"L1210 leukemia [2]; on a similar dosage level, i.p.",superior to methotrexate
Nc1nc2ncc(CCc3ccc(C(=O)O)cc3)nc2c(=O)[nH]1 [10-deazapteroic acid],growth-inhibitory activity,Streptococcus faecium,potent growth-inhibitory activity
CCC(Cc1cnc2nc(N)nc(N)c2n1)c1ccc(C(=O)N[C@@H](CCC(=O)O)C(=O)O)cc1 (stereo partly shown) [10-ethyl-10-deazaminopterin],AST,L1210 leukemia [3]; 12 mg/kg i.p.,18.3 ± 1.7 days
same,ILS,L1210 leukemia [3]; 12 mg/kg i.p.,+172%
same,AST,L1210 leukemia [3]; 18 mg/kg i.p.,21.8 ± 1.4 days
same,ILS,L1210 leukemia [3]; 18 mg/kg i.p.,+220%
same,life span of the test mice,L1210 leukemia [3]; i.p.,very considerably increased
same,antileukemic activity compared with methotrexate,L1210 leukemia [3]; i.p.,superior to methotrexate
"CC(Cc1cnc2nc(N)nc(N)c2n1)c1ccc(C(=O)N[C@@H](CCC(=O)O)C(=O)O)cc1 (stereo partly shown) [10-methyl-10-deazaminopterin, 10-Methyl-10-deazaminopterin]",AST,L1210 leukemia [3]; 12 mg/kg i.p.,18.1 ± 1.9 days
same,ILS,L1210 leukemia [3]; 12 mg/kg i.p.,+170%
same,AST,L1210 leukemia [3]; 18 mg/kg i.p.,22.2 ± 1.6 days
same,ILS,L1210 leukemia [3]; 18 mg/kg i.p.,+230%
same,life span of the test mice,L1210 leukemia [3]; i.p.,very considerably increased
same,Toxicity,"L1210 leukemia [3]; maximum dose, about 22 mg/kg, i.p.",slight toxicity
same,antileukemic activity compared with methotrexate,L1210 leukemia [3]; i.p.,superior to methotrexate
"CN(Cc1cnc2nc(N)nc(N)c2n1)c1ccc(C(=O)N[C@@H](CCC(=O)O)C(=O)O)cc1 [Methotrexate, reference compound]",LD50,in vivo; ip or sc,96 mg/kg
same,Plasma and tissue pharmacokinetics,[1],similar
same,MST (median survival time),P815 ascites; 6 mg/kg s.c. every 2 days × 5,15.4 ± 1.1 days
same,Toxic Deaths,P815 ascites; 6 mg/kg s.c. every 2 days × 5,0/10
same,MST (median survival time),P815 ascites; 9 mg/kg s.c. every 2 days × 5,17.6 ± 1.6 days
same,Toxic Deaths,P815 ascites; 9 mg/kg s.c. every 2 days × 5,0/10
same,MST (median survival time),P815 ascites; 12 mg/kg s.c. every 2 days × 5,18.4 ± 1.3 days
same,Toxic Deaths,P815 ascites; 12 mg/kg s.c. every 2 days × 5,0/10
same,MST (median survival time),Ehrlich ascites; 6 mg/kg s.c. every 2 days × 5,19.8 ± 2.3 days
same,Toxic Deaths,Ehrlich ascites; 6 mg/kg s.c. every 2 days × 5,0/10
same,MST (median survival time),Ehrlich ascites; 9 mg/kg s.c. every 2 days × 5,20.8 ± 3.0 days
same,Toxic Deaths,Ehrlich ascites; 9 mg/kg s.c. every 2 days × 5,0/10
same,MST (median survival time),Ehrlich ascites; 12 mg/kg s.c. every 2 days × 5,20.2 ± 1.9 days
same,Toxic Deaths,Ehrlich ascites; 12 mg/kg s.c. every 2 days × 5,0/10
same,dihydrofolic reductase inhibition,dihydrofolic reductase,powerful dihydrofolic reductase inhibitors
same,Weight change,L1210 leukemia [2]; 3.0 mg/kg i.p.,+8%
same,Toxicity,L1210 leukemia [2]; 6.0 mg/kg i.p.,Slight toxicity
same,Weight change,L1210 leukemia [2]; 6.0 mg/kg i.p.,+3%
